Six compounds from ChEMBL document CHEMBL3400100, “Streptococcus mutans sortase A inhibitory metabolites from the flowers of Sophora japonica” (Bioorg Med Chem Lett, 2015) can be followed below.

The IC50 is the point on the concentration scale where inhibition reaches its midpoint. Read a low IC50 as inhibition by little substance.

Data set [1] relates to Streptococcus mutans. Kind of data set: Inhibition of sortase A in Streptococcus mutans NG8 assessed as reduction in saliva-induced bacterial aggregation at 58.6 to 234.4 uM by spectrophotometry.
Data set [2] relates to Streptococcus mutans. Nature of the data set: Toxicity against Streptococcus mutans assessed as inhibition of microbial growth. The data set is classed as organism-based. As to conditions: in vitro.
Data set [3] in a line: Inhibition of Streptococcus mutans OMZ65 sortase A lacking N-terminal membrane anchor domain (1 to 40 amino acids) expressed in Escherichia coli TOP10 using Dabcyl-QALPETGEE-Edans substrate incubated for 1 hr by fluorescence spectrophotometry.

For `Cc1occc(=O)c1O[C@@H]1O[C@H](COC(=O)CC(C)(O)CC(=O)O)[C@@H](OC(=O)/C=C\c2ccc(O)cc2)[C@H](O)[C@H]1O` (some centres not stated), in the data set on Streptococcus mutans [1], the inhibition result is “Dose-dependent effect”. In addition, the MIC in the data set with Streptococcus mutans [2] is greater than 345.9 µM. Also, the IC50 in data set [3] stood at 58.6 µM.

Regarding `Cc1occc(=O)c1O[C@@H]1O[C@H](COC(=O)CC(C)(O)CC(=O)O)[C@@H](OC(=O)/C=C/c2ccc(O)cc2)[C@H](O)[C@H]1O` (some centres not stated), in the data set with Streptococcus mutans [2], the MIC is greater than 345.9 µM. The compound also showed an IC50 in data set [3] of 94.3 µM.

On to `COc1cc(/C=C/C(=O)CC(=O)/C=C/c2ccc(O)c(OC)c2)ccc1O` [CURCUMIN], for which the MIC in the data set on Streptococcus mutans [2] is greater than 542.9 µM. The compound also gave an IC50 in data set [3] of 91.5 µM.

On to `COc1cc(-c2oc3cc(O)cc(O)c3c(=O)c2O[C@@H]2O[C@H](CO[C@@H]3O[C@@H](C)[C@H](O)[C@@H](O)[C@H]3O)[C@@H](O)[C@H](O)[C@H]2O)ccc1O` [NARCISSIN], for which the MIC in the data set on Streptococcus mutans [2] was greater than 320.2 µM. Besides, inhibition in data set [3] was half-maximal at 62.1 µM (IC50).

Take `C[C@@H]1O[C@@H](OC[C@H]2O[C@@H](Oc3c(-c4ccc(O)cc4)oc4cc(O)cc(O)c4c3=O)[C@H](O)[C@@H](O)[C@@H]2O)[C@H](O)[C@H](O)[C@H]1O` [NICOTIFLOROSIDE]: the MIC in the data set on Streptococcus mutans [2] was greater than 336.4 µM. In data set [3], this compound showed an IC50 of 60.7 µM.

On to Para-Hydroxymercuribenzoic acid, for which it took 112 µM to reach half-maximal inhibition in data set [3] (IC50).
